Structures can show the parent of a compound that is named as a salt. Where two headings read alike, the source gives them in different places.
Key:
[1] = system: Phosphorylation of ERK1/2 in AsPC-1 cells; test: Phospho-ERK1/2 MSD Assay; format: cell-based, human
Summary of the method: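 Read-out: MSD electrochemiluminescent detection of phosphorylated ERK1/2 in whole-cell lysates, fitted to a 4-parameter logistic curve for IC50. Prior to lysis, AsPC-1 cells (25,000 per well) received a 2 h compound dose-response at 37 °C.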

[2] = molecular target: His-tagged KRAS G12D protein (Homo sapiens (Human), UniProt P01116, G12D); test: KRAS G12D TR-FRET Assay; format: binding
Summary of the method: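 His-tagged KRAS G12D (diluted to 20 nM in pH 7.4 HEPES buffer with 10 mM MgCl2 and 10 μM GDP) was preincubated with titrated compound for 30 min at room temperature. Biotinylated KRPep-2d peptide (diluted to 20 nM) was then added for 1 h, and displacement was monitored by TR-FRET.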

AsPC-1 cells = test: AsPC-1 CTG Assay (CellTiter-Glo cell viability); format: cell-based, human; settings: first value of the cell, read-out: G12D/C/V Cell Proliferation CTG (72 h) AsPC-1
Method: AsPC-1 and SW620 CTG Assay Protocols
AsPC-1 (human pancreatic adenocarcinoma; ATCC CRL-1682) or SW620 (human colon adenocarcinoma; ATCC CCL-227) cells were cultured in RPMI 1640 medium containing 10% fetal bovine serum and 1× penicillin/streptomycin/L-glutamine. Cells were seeded in 384-well plates at a density of 3.33E+04 cells/mL and incubated at 37° C., 5% CO2, overnight. Serially-diluted compound or DMSO was added to the cells, and plates were incubated at 37° C., 5% CO2 for 72 h. Cell viability was measured using a CellTiter-Glo® Luminescent Cell Viability Assay kit (Promega) according to the manufacturer's protocol. The luminescence signal of treated samples was normalized to DMSO control, and data were analyzed using a 4-parameter logistic model to calculate IC50 values.

[3] = molecular target: GDP-bound KRAS protein (aa 1-169), containing both G12D and C118A amino acid substitutions (Homo sapiens (Human), UniProt P01116, C118A/G12D); test: KRAS G12D Coupled Nucleotide Exchange Assay; format: biochemical
[4] = 2 h, read-out: 2 h p-ERK (AsPC-1 cells), IC50
[5] = read-out: KRAS G12D Binding IC50
[6] = read-out: KRAS G12D Coupled Exchange IC50
[7] = Homo sapiens, ASPC1, 2 h, read-out: 2 h p-ERK (AsPC-1 cells), IC50
[8] = Homo sapiens, ASPC1, 72 h, AsPC-1, 72 h
[9] = Homo sapiens, ASPC1, 2 h, read-out: 2 h p-ERK (AsPC-1 cells)
[10] = TR-FRET, read-out: KRAS G12D Binding
[11] = Homo sapiens, ASPC1, 72 h, AsPC-1 cells (G12D), 72 h
[12] = 2 hours compound pre-incubation, read-out: KRAS G12D Coupled Exchange

His-tagged KRAS G12D protein, sequence (P01116 other isoform, or with tags, fused parts or gaps G12D): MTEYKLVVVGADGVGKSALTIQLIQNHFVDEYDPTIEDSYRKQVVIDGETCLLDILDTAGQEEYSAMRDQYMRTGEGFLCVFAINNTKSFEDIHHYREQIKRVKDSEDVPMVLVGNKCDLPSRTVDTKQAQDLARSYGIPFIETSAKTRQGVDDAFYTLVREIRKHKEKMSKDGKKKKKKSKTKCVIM
GDP-bound KRAS protein (aa 1-169), containing both G12D and C118A amino acid substitutions, sequence (P01116 other isoform, or with tags, fused parts or gaps G12D/C118A): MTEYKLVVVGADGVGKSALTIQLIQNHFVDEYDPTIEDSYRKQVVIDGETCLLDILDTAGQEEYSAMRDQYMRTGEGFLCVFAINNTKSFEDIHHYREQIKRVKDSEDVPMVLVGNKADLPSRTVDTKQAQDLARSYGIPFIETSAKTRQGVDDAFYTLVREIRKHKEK

Cc1c2ncc3c(nc(OC[C@@]45CCCN4C[C@H](F)C5)nc13)N1CCOC[C@H](C1)OC(=O)OCCCc1c(Cl)cc3[nH]ncc3c1-2 (atropisomer, axis not shown) [Example 342, (26S)-18-chloro-4-(((2R,7aS)-2-fluorotetrahydro-1H-pyrrolo[1,2-a]pyrrol-7a(5H)-yl)methoxy)-32-methyl-23,25,28-trioxa-1,3,5,9,14,15-hexaazahexacyclo[24.4.1.1~6,10~.0~2,7~.0~11,19~.0~12,16~]dotriaconta-2,4,6,8,10(32),11,13,16,18-nonaen-24-one]
IC50 [1, 4]: 332 nM
IC50 [2, 5]: 47 nM
IC50 (AsPC-1 cells; AsPC-1, 72 h): 3060 nM
IC50 [3, 6]: 23 nM

C[C@@]12CCCN(C1)c1nc(OC[C@@]34CCCN3C[C@H](F)C4)nc3c(F)c(ncc13)-c1cccc3ccc(F)c(c13)CCC(F)C(=O)N2 (mixture of isomers) [Example 11]
IC50 [1, 7]: 155 nM
IC50 [2, 5]: 12 nM
IC50 (AsPC-1 cells; [8]): 1050 nM
IC50 [3, 6]: 8 nM

C[C@@]12CCCN(C1)c1nc(OC[C@@]34CCCN3C[C@H](F)C4)nc3c(F)c(ccc13)-c1cc(O)cc3ccc(F)c(c13)CCC(F)C(=O)N2 (mixture of isomers) [Example 17, 2,2,2-trifluoroacetate salt]
IC50 [1, 7]: 46 nM
IC50 [2, 5]: 11 nM
IC50 (AsPC-1 cells; [8]): 405 nM
IC50 [3, 6]: 7 nM

Cc1cc2[nH]ncc2c2c1CCCCC(=O)N1CC[C@@H]3CCN(C[C@@H]31)c1nc(OC[C@@]34CCCN3C[C@H](F)C4)nc3c(F)c-2ncc13 (mixture of isomers) [Example 63]
IC50 [1, 7]: 59 nM
IC50 [2, 5]: 9 nM
IC50 (AsPC-1 cells; [8]): 460 nM
IC50 [3, 6]: 2 nM

CC12CCCN(C1)c1nc(OC[C@@]34CCCN3C[C@H](F)C4)nc3c(F)c(ncc13)-c1cccc3ccc(F)c(c13)CCOC(=O)N2 (mixture of isomers) [Example 76]
IC50 [1, 7]: 820 nM
IC50 [2, 5]: 15 nM
IC50 (AsPC-1 cells; [8]): 1710 nM
IC50 [3, 6]: 9 nM

O=C1OC[C@H]2C[C@@H]2c2c(Cl)cc3[nH]ncc3c2-c2ncc3c(nc(OC[C@@]45CCCN4C[C@H](F)C5)nc3c2F)N2CCC[C@H](C2)O1 (mixture of isomers) [Example 113]
IC50 [1, 7]: 109 nM
IC50 [2, 5]: 10 nM
IC50 (AsPC-1 cells; [8]): 1180 nM
IC50 [3, 6]: 3 nM

O=C1N[C@@H]2CCCCN(C2)c2nc(OC[C@@]34CCCN3C[C@H](F)C4)nc3c(F)c(ncc23)-c2c(c(Cl)cc3[nH]ncc23)CCCC1F (mixture of isomers) [Example 161]
IC50 [1, 7]: 19.8 nM
IC50 [2, 5]: 6 nM
IC50 (AsPC-1 cells; [8]): 225 nM
IC50 [3, 6]: 4 nM

O=C1CCCCc2c(Cl)cc3[nH]ncc3c2-c2ncc3c(nc(OC[C@@]45CCCN4C[C@H](F)C5)nc3c2F)N2CCOCC(C1)C2 (mixture of isomers) [Example 230]
IC50 [1, 7]: 95.1 nM
IC50 [2, 5]: 12 nM
IC50 (AsPC-1 cells; [8]): 174 nM
IC50 [3, 6]: 9 nM

CC12COCCN(C1)c1nc(OC[C@@]34CCCN3C[C@H](F)C4)nc3c(F)c(ncc13)-c1c(c(Cl)cc3[nH]ncc13)CCCc1nc2no1 (mixture of isomers) [Example 379]
IC50 [1, 9]: 85.3 nM
IC50 [2, 10]: 9 nM
IC50 (AsPC-1 cells; [11]): 404 nM
IC50 [3, 12]: 3 nM

Fc1c2ncc3c(nc(OC[C@@]45CCCN4C[C@H](F)C5)nc13)N1CCCCC(C1)c1noc(n1)CCCc1c(Cl)cc3[nH]ncc3c1-2 (mixture of isomers) [Example 382]
IC50 [1, 9]: 16.8 nM
IC50 [2, 10]: 5 nM
IC50 (AsPC-1 cells; [11]): 1480 nM
IC50 [3, 12]: 3 nM

O=C1CCCCc2c(Cl)cc3[nH]ncc3c2-c2ncc3c(nc(OC[C@@]45CCCN4C[C@H](F)C5)nc3c2F)N2CCOCC(C2)C1O (mixture of isomers) [Example 384]
IC50 [1, 9]: 22.3 nM
IC50 [2, 10]: 10 nM
IC50 (AsPC-1 cells; [11]): 109 nM
IC50 [3, 12]: 6 nM

OC1CCCCc2c(Cl)cc3[nH]ncc3c2-c2ncc3c(nc(OC[C@@]45CCCN4C[C@H](F)C5)nc3c2F)N2CCC[C@@H](C1)C2 (mixture of isomers) [Example 385, bis(2,2,2-trifluoroacetate) salt]
IC50 [1, 9]: 137 nM
IC50 [2, 10]: 31 nM
IC50 (AsPC-1 cells; [11]): 211 nM
IC50 [3, 12]: 16 nM

Cc1cc2[nH]ncc2c2c1CCCOC(=O)O[C@H]1CN(CC[C@H]1F)c1nc(OC[C@@]34CCCN3C[C@H](F)C4)nc3c(F)c-2ncc13 (racemic) [Example 93]
IC50 [1, 7]: 180 nM
IC50 [2, 5]: 14 nM
IC50 (AsPC-1 cells; [8]): 1250 nM
IC50 [3, 6]: 5 nM

O=C1CCCCc2c(Cl)cc3[nH]ncc3c2-c2ncc3c(nc(OC[C@@]45CCCN4C[C@H](F)C5)nc3c2F)N2CCC3CN1[C@H]3C2 (mixture of isomers) [Example 164]
IC50 [1, 7]: 236 nM
IC50 [2, 5]: 10 nM
IC50 (AsPC-1 cells; [8]): 3100 nM
IC50 [3, 6]: 7 nM

O=C1CCCCc2c(Cl)cc3[nH]ncc3c2-c2ncc3c(nc(OC[C@@]45CCCN4C[C@H](F)C5)nc3c2F)N2C[C@@H](O)C[C@H](C2)N1 (racemic) [Example 275, (17R,19S)-9-chloro-30-fluoro-24-(((2R,7aS)-2-fluorotetrahydro-1H-pyrrolo[1,2-a]pyrrol-7a(5H)-yl)methoxy)-19-hydroxy-5,6,16,21,23,25,29-heptaazahexacyclo[24.3.1.1~17,21~.0~2,10~.0~3,7~.0~22,27~]hentriaconta-1(30),2,4,7,9,22,24,26,28-nonaen-15-one]
IC50 [1, 7]: 53.1 nM
IC50 [2, 5]: 6 nM
IC50 (AsPC-1 cells; [8]): 778 nM
IC50 [3, 6]: 3 nM

O=C1N[C@@H]2CC[C@H](O)CN(C2)c2nc(OC[C@@]34CCCN3C[C@H](F)C4)nc3c(F)c(ncc23)-c2c(c(Cl)cc3[nH]ncc23)CCCO1 (racemic) [Example 282, (26R,29S)-18-chloro-32-fluoro-4-(((2R,7aS)-2-fluorotetrahydro-1H-pyrrolo[1,2-a]pyrrol-7a(5H)-yl)methoxy)-29-hydroxy-23-oxa-1,3,5,9,14,15,25-heptaazahexacyclo[24.4.1.1~6,10~.0~2,7~.0~11,19~.0~12,16~]dotriaconta-2,4,6(32),7,9,11,13,16,18-nonaen-24-one]
IC50 [1, 7]: 133 nM
IC50 [2, 5]: 7 nM
IC50 (AsPC-1 cells; [8]): 1190 nM
IC50 [3, 6]: 3 nM

Cc1cc2[nH]ncc2c2c1/C=C\COC(=O)O[C@@H]1CCCN(C1)c1nc(OC[C@@]34CCCN3C[C@H](F)C4)nc3c(F)c-2ncc13 (single isomer, unassigned) [Example 123]
IC50 [1, 7]: 104 nM
IC50 [2, 5]: 8 nM
IC50 (AsPC-1 cells; [8]): 650 nM
IC50 [3, 6]: 4 nM

Fc1c2ncc3c(nc(OC[C@@]45CCCN4C[C@H](F)C5)nc13)N1CCOC[C@H](COCCCCc3c(Cl)cc4[nH]ncc4c3-2)C1 (single isomer, unassigned) [Example 136]
IC50 [1, 7]: 77 nM
IC50 [2, 5]: 7 nM
IC50 (AsPC-1 cells; [8]): 670 nM
IC50 [3, 6]: 3 nM

O[C@@H]1C[C@@H]2CN(C1)c1nc(OC[C@@]34CCCN3C[C@H](F)C4)nc3c(F)c(ncc13)-c1c(c(Cl)cc3[nH]ncc13)CCCn1ncc2n1 (single isomer, unassigned) [Example 299]
IC50 [1, 4]: 467 nM
IC50 [2, 5]: 30 nM
IC50 (AsPC-1 cells; AsPC-1, 72 h): 5000 nM
IC50 [3, 6]: 21 nM

O[C@@H]1C[C@@H]2CN(C1)c1nc(OC[C@@]34CCCN3C[C@H](F)C4)nc3c(F)c(ncc13)-c1c(c(Cl)cc3[nH]ncc13)CCCn1ncc2n1 (single isomer, unassigned) [Example 300]
IC50 [1, 4]: 23.2 nM
IC50 [2, 5]: 10 nM
IC50 (AsPC-1 cells; AsPC-1, 72 h): 281 nM
IC50 [3, 6]: 5 nM

CN(C)CC1(COc2nc3c4cnc(c(F)c4n2)-c2c(c(Cl)cc4[nH]ncc24)CCCOC(=O)O[C@]2(C)COCCN3C2)CC1 (single isomer, unassigned) [Example 331]
IC50 [1, 7]: 15.4 nM
IC50 [2, 5]: 5 nM
IC50 (AsPC-1 cells; [8]): 115 nM
IC50 [3, 6]: 3 nM
